Experimental findings from ChEMBL document CHEMBL1201862, “PubChem BioAssay data set” (2004) are described below.

Structures are written as SMILES.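 Dose response: 5 concentrations. Exposure: 48 h. Format: 96-well plates. Endpoint: linear interpolation; highest concentration if not reached. Abbreviation: GI50, concentration required for 50% inhibition of growth.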 Activity calls are given as the source filed them. Rule as the data show it: active = GI50 up to about 1.1 µM and inactive = higher.

Test systems include HOP-18; DMS-273; SNB-78; RXF 631; DLD-1; KM-20L2; XF498; M19-MEL; DMS-114.
Assay in all cases: DTP human tumour cell line panel, 48 h

With `O=[N+]([O-])c1cccc2nc3ccccc3c(NCCN(CCO)CCO)c12`, the GI50 in the assay with HOP-18 was 0.0443 µM (active); in the assay with DMS-273 it was 0.012 µM (active); in the assay on SNB-78 it was 0.0221 µM (active); in the assay with RXF 631, 0.00457 µM (active); with DLD-1, 0.0069 µM (active); in the assay on KM-20L2 it was 0.00509 µM (active). Besides, the 50% growth inhibitory concentration (GI50) in the assay with XF498 was 0.00512 µM (active).
For `Cc1ccc(C(=O)O/N=C2/CCC/C2=C\c2ccccc2)cc1`, the GI50 in the assay on HOP-18, in the assay on DMS-273, in the assay on SNB-78, in the assay with DLD-1, in the assay with KM-20L2 and in the assay with M19-MEL was > 100 µM (inactive) in each case. The GI50 in the assay on DMS-114 is > 100 µM (inactive).
Consider `C#CCN(N=O)C(=O)NCCCC(NC(C)=O)C(=O)NCc1ccccc1` (configuration not stated), for which the GI50 with HOP-18, with SNB-78, in the assay on RXF 631, in the assay with DLD-1, with KM-20L2 and with M19-MEL was > 100 µM (inactive) throughout. The results for the GI50 in the assay with XF498 and in the assay on DMS-114 were 0.0526 µM (active) and > 100 µM (inactive), respectively.
Take `CC(C)C(Sc1nc(-c2ccccc2)c(-c2ccccc2)[nH]1)c1n[nH]c(=S)n1-c1ccccc1` (configuration not stated): the GI50 in the assay with DMS-273 was 23.6 µM (inactive); with SNB-78, 46 µM (inactive); in the assay on DLD-1, 41.5 µM (inactive); with KM-20L2, 29.1 µM (inactive); with M19-MEL, 17.5 µM (inactive); with XF498 it was 37.7 µM (inactive).
As to `CC(C)(C)OP(=O)(OC(C)(C)C)C(O)c1ccc(/C=C(\C#N)C(N)=O)cc1` (configuration not stated), the GI50 with DMS-273, in the assay on SNB-78, with DLD-1, with KM-20L2, with M19-MEL and in the assay with XF498 was > 100 µM (inactive) in each case. Also, the GI50 in the assay with DMS-114 is > 100 µM (inactive).
On to `N#C/C(=C1\SC(/N=N/c2ccc(Cl)cc2)C(=O)N1c1ccccc1)c1nc2ccccc2[nH]1` (configuration not stated), for which the GI50 in the assay on DMS-273 was 36.8 µM (inactive); with SNB-78 it was 42.1 µM (inactive); in the assay on DLD-1, > 100 µM (inactive); with KM-20L2, > 100 µM (inactive); in the assay on M19-MEL, 28.1 µM (inactive); with XF498 it was 31.3 µM (inactive).
As to `C=CC[P@@]1(=O)O[C@H](c2ccccc2)C(C)N1C(C)C` (some centres not stated), the GI50 with HOP-18, in the assay with DMS-273, with SNB-78, in the assay on RXF 631, in the assay with DLD-1 and in the assay on M19-MEL was > 100 µM (inactive) each time. For the same compound, the GI50 in the assay on XF498 and in the assay on DMS-114 was > 100 µM (inactive) each time.
Turning to `O=C1C=C(Br)C(=O)C(Br)=C1`, the GI50 was > 100 µM (inactive) with HOP-18; > 100 µM (inactive) in the assay on DMS-273; > 100 µM (inactive) in the assay on SNB-78; > 100 µM (inactive) in the assay on RXF 631; > 96.6 µM (inactive) in the assay on DLD-1; > 100 µM (inactive) in the assay with KM-20L2. Also, the GI50 in the assay with M19-MEL is > 53.5 µM (inactive); in the assay on XF498, > 100 µM (inactive); in the assay with DMS-114 it was > 72.4 µM (inactive).
As for `CN1S(=O)(=O)N(C)P12(N=P(CP(=NP13(N(C)S(=O)(=O)N1C)N(C)S(=O)(=O)N3C)(c1ccccc1)c1ccccc1)(c1ccccc1)c1ccccc1)N(C)S(=O)(=O)N2C`, the GI50 with HOP-18, in the assay with DMS-273, in the assay on SNB-78, in the assay with RXF 631, with DLD-1 and with KM-20L2 was > 100 µM (inactive) throughout. For the same compound, the GI50 with M19-MEL, in the assay with XF498 and with DMS-114 was > 100 µM (inactive) each time.
Take `COc1ccc(N2C(=O)C3c4[nH]c5ccccc5c4C4CCCCCCCCCCC4C3C2=O)cc1` (configuration not stated): the GI50 in the assay on HOP-18 was 3.03 µM (inactive); in the assay on DMS-273, 6.31 µM (inactive); in the assay on DLD-1, 8.77 µM (inactive); in the assay with KM-20L2, 3.15 µM (inactive); in the assay with M19-MEL, 25.1 µM (inactive); in the assay on XF498, 12.9 µM (inactive). Further, the GI50 with DMS-114 is 18 µM (inactive).
On to `CN1/C(=C/C(=O)c2ccc(Cl)cc2)Nc2ccccc21`, for which the GI50 was > 100 µM (inactive) in the assay on SNB-78; 43.3 µM (inactive) in the assay with RXF 631; 37.4 µM (inactive) in the assay on DLD-1; 29.2 µM (inactive) with KM-20L2; 38.2 µM (inactive) in the assay on M19-MEL; 60.3 µM (inactive) in the assay with XF498.
For `O=[N+]([O-])C1(CO)COC2(OC1)c1ccccc1-c1ccccc12`, the GI50 with HOP-18 was > 100 µM (inactive); in the assay with DMS-273 it was > 100 µM (inactive); with SNB-78, > 100 µM (inactive); in the assay with RXF 631 it was > 100 µM (inactive); with DLD-1, 36 µM (inactive); in the assay on KM-20L2, > 100 µM (inactive). The GI50 with M19-MEL and with DMS-114 was > 100 µM (inactive) throughout.
As for `Cc1ccc(S(=O)(=O)NC(=O)C2S(=O)(=O)OCCOS2(=O)=O)cc1`, the GI50 in the assay with DMS-273, with SNB-78, with RXF 631, in the assay with DLD-1, with M19-MEL and in the assay on XF498 was > 100 µM (inactive) throughout.
With `OCC[N+]12CCCN1CCC2`, the GI50 in the assay on HOP-18, in the assay on DMS-273, in the assay with SNB-78, with DLD-1, in the assay on KM-20L2 and in the assay on M19-MEL was > 100 µM (inactive) in each case. Besides, the GI50 in the assay with DMS-114 was > 100 µM (inactive).
Regarding `COc1cc(/C=C\c2ccccc2)cc(OC)c1OC`, the GI50 in the assay on HOP-18 is > 36.8 µM (inactive); in the assay on DMS-273, 1.24 µM (inactive); in the assay on SNB-78 it was 7.83 µM (inactive); in the assay on RXF 631, 8.87 µM (inactive); in the assay on DLD-1, 3.19 µM (inactive); in the assay with KM-20L2, 1.64 µM (inactive). For the same compound, the GI50 with M19-MEL was 5.31 µM (inactive); in the assay with XF498, 3.9 µM (inactive); with DMS-114, 3.06 µM (inactive).
For the compound `O=S(=O)(O)c1ccc(/N=N/c2nc(C(F)(F)F)c(C(F)(F)F)[nH]2)cc1`, the GI50 in the assay on HOP-18 was 25.5 µM (inactive); in the assay on DMS-273 it was > 100 µM (inactive); in the assay with SNB-78, 96.2 µM (inactive); in the assay with RXF 631 it was 30.8 µM (inactive); in the assay on DLD-1, 43.5 µM (inactive); with KM-20L2 it was 76.7 µM (inactive). Also, the GI50 was 39.2 µM (inactive) in the assay with M19-MEL, 17.2 µM (inactive) with XF498 and 16.8 µM (inactive) in the assay with DMS-114.
On to `CN1c2c(O)nc(N)nc2NCC1CCNc1ccc(C(=O)NC(CCC(=O)O)C(=O)O)cc1` (configuration not stated), for which the GI50 with HOP-18 is 1550 µM (inactive); in the assay on DMS-273, 15.1 µM (inactive); in the assay with SNB-78, 1130 µM (inactive); in the assay on DLD-1 it was 891 µM (inactive); in the assay on KM-20L2, 573 µM (inactive); with M19-MEL, 222 µM (inactive). Further, the GI50 is 394 µM (inactive) in the assay with XF498 and 294 µM (inactive) in the assay on DMS-114.
Turning to `COc1cc(/C=C/c2ccc(OC(C)=O)cc2)cc(OC)c1OC`, the GI50 was 55.3 µM (inactive) in the assay with HOP-18; 26.9 µM (inactive) in the assay with DMS-273; 35.1 µM (inactive) with SNB-78; 11.6 µM (inactive) in the assay with RXF 631; 32.3 µM (inactive) in the assay on DLD-1; 33.7 µM (inactive) with KM-20L2. Moreover, the GI50 in the assay on M19-MEL is 39.9 µM (inactive); with DMS-114 it was 22.9 µM (inactive).
In the case of `COc1cc2c(cc1OC)[C@H]1CN3CCC[C@H]3C=C1c1ccc(OC)c(O)c1-2`, the GI50 in the assay on HOP-18, with DMS-273, in the assay with SNB-78, with DLD-1, in the assay with KM-20L2 and in the assay on M19-MEL was < 0.0001 µM (active) throughout. For the same compound, the GI50 in the assay with XF498 and with DMS-114 was < 0.0001 µM (active) each time.
As for `c1coc(CNc2[nH]cnc3nncc2-3)c1`, the GI50 in the assay with DMS-273, with SNB-78, with RXF 631, with DLD-1, in the assay with KM-20L2 and in the assay on M19-MEL was > 100 µM (inactive) each time. Also, the GI50 with XF498 was > 100 µM (inactive); in the assay with DMS-114 it was 44.5 µM (inactive).
For `CN(C)c1ccc(/C=c2\sc3nnc(-c4cccnc4)n3c2=O)cc1`, the GI50 in the assay on HOP-18, in the assay on DMS-273, in the assay on SNB-78, in the assay on DLD-1, with KM-20L2 and with M19-MEL was > 100 µM (inactive) each time. Further, the GI50 in the assay on XF498 and with DMS-114 was > 100 µM (inactive) throughout.
Regarding `Cn1c(CBr)nc2c1C(=O)c1nc(CBr)[nH]c(=O)c1C2=O`, the GI50 in the assay with HOP-18 is > 100 µM (inactive); in the assay with RXF 631 it was > 100 µM (inactive); in the assay on DLD-1, > 100 µM (inactive); with KM-20L2, 46.1 µM (inactive); in the assay with M19-MEL it was 26.8 µM (inactive); in the assay on DMS-114 it was > 100 µM (inactive).
Take `COc1ccc(/C(=N/NC(=O)NN)C(c2ccc(OC)cc2)C2(O)CNc3c(Cl)cc(Cl)cc32)cc1` (configuration not stated): the GI50 with HOP-18 was 53.2 µM (inactive); in the assay on SNB-78 it was > 100 µM (inactive); with RXF 631, 48.3 µM (inactive); with DLD-1, > 100 µM (inactive); in the assay on KM-20L2, > 100 µM (inactive); in the assay on M19-MEL, > 100 µM (inactive). Also, the GI50 with DMS-114 is 71.8 µM (inactive).
Take `CC(C)=CC(=O)c1c(C(=O)O)nc2ccccc2[n+]1[O-]`: the GI50 in the assay with DMS-273, with SNB-78, in the assay on RXF 631, in the assay on DLD-1, with KM-20L2 and in the assay with M19-MEL was > 100 µM (inactive) in each case. Besides, the GI50 with DMS-114 was > 100 µM (inactive).
With `CCOC(=O)c1[nH]c(COC(C)=O)c2c1CCCCCCCCCC2`, the GI50 in the assay on HOP-18, with DMS-273, in the assay on SNB-78, in the assay with DLD-1, in the assay on KM-20L2 and with M19-MEL was > 100 µM (inactive) throughout. For the same compound, the GI50 in the assay with XF498 and with DMS-114 was > 100 µM (inactive) throughout.

For orientation: GI50 means the concentration that inhibits growth by half.
